Measured values as given in patent publication US20230203060A1 (GENFLEET THERAPEUTICS (SHANGHAI) INC., priority 2020, published 2023).

Key:
[1] = tested on: A549 cells (KRAS G12S mutant); experiment: Cell proliferation inhibition experiment, 3D spheroid, CellTiter-Glo, A549; assay type: cell-based, human; settings: Homo sapiens, A549, 120 h, A549 (KRAS G12S mutant) 3D spheroid, 5 days with compound, CellTiter-Glo; read-out: A549 IC50
In short: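 3D spheroid format; 800 H358 / 400 A549 cells/well, 2% FBS. Cpd 3.16-fold series, 0.1% DMSO, 5 d. Readout CellTiter-Glo luminescence; IR% vs DMSO control and medium blank; 4-parameter IC50.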

[2] = tested on: phosphorylated ERK downstream of KRAS G12C in MIA PaCa2 cells; experiment: Cell p-ERK detection experiment (HTRF) in MIA PaCa2; assay type: cell-based, human; settings: Homo sapiens, MIA PaCa-2, 2 h, MIA PaCa2 cells, 2 hours with compound, Advance ERK phospho-T202/Y204 HTRF kit; read-out: p-ERK IC50
In short: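 Phospho-ERK (T202/Y204) measured by HTRF after 30 min lysis and 4 h antibody incubation in MIA PaCa2 (KRAS G12C) cells, seeded at 2.5E4 per well and treated 2 h with compounds in 3.16-fold steps, final DMSO 0.1%. IC50 from a four-parameter fit of percent inhibition relative to DMSO and blank wells.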

| IC50 [1] [nM] | IC50 [2] [nM] | SMILES |
| --- | --- | --- |
| 3170 | 85 | C=CC(=O)N1CCN2C(=O)c3c(N4CC(N5CCC(F)(F)C5)CC4(C)C)nc(-c4ccccc4F)c(Cl)c3OC[C@H]2C1 (stereo partly drawn) [Z532, (6aR)-8-acryloyl-4-chloro-1-(3,3-difluoro-5′,5′-dimethyl-[1,3′-bipyrrolidin]-1′-yl)-3-(2-fluorophenyl)-6,6a,7,8,9,10-hexahydro-12H-pyrazino[2,1-c]pyrido[3,4-f][1,4]oxazepin-12-one] |
| 8160 | 135 | C=CC(=O)N1CCN2C(=O)c3c(N4CCN(C)C[C@@H]4C)nc(-c4c(F)cccc4Cl)c(Cl)c3OC[C@H]2C1 [Z547, (6aR)-8-acryloyl-4-chloro-3-(2-chloro-6-fluorophenyl)-1-((S)-2,4-dimethylpiperazin-1-yl)-6,6a,7,8,9,10-hexahydro-12H-pyrazino[2,1-c]pyrido[3,4-f][1,4]oxazepin-12-one] |
| 29100 | 165 | C=CC(=O)N1CCN2C(=O)c3c(N4CCC[C@@]4(C)C(=O)NC)nc(-c4c(O)cccc4F)c(Cl)c3OC[C@H]2C1 [Z462, (2S)-1-((6aR)-8-acryloyl-4-chloro-3-(2-fluoro-6-hydroxyphenyl)-12-oxo-6,6a,7,8,9,10-hexahydro-12H-pyrazino[2,1-c]pyrido[3,4-f][1,4]oxazepin-1-yl)-N,2-dimethylpyrrolidine-2-carboxamide] |
| > 30000 | 6520 | C=CC(=O)N1CCN2C(=O)c3c(N4CC(C(=O)O)CC4(C)C)nc(-c4c(O)cccc4F)c(Cl)c3OC[C@H]2C1 (stereo partly drawn) [Z458, 1-((6aR)-8-acryloyl-4-chloro-3-(2-fluoro-6-hydroxyphenyl)-12-oxo-6,6a,7,8,9,10-hexahydro-12H-pyrazino[2,1-c]pyrido[3,4-f][1,4]oxazepin-1-yl)-5,5-dimethylpyrrolidine-3-carboxylic acid] |
| 2660 | 29 | C=CC(=O)N1CCN2C(=O)c3c(N4CC(NC)CC4(C)C)nc(-c4ccccc4F)c(Cl)c3OC[C@H]2C1 (stereo partly drawn) [Z661, (6aR)-8-acryloyl-4-chloro-1-(2,2-dimethyl-4-(methylamino)pyrrolidin-1-yl)-3-(2-fluorophenyl)-6,6a,7,8,9,10-hexahydro-12H-pyrazino[2,1-c]pyrido[3,4-f][1,4]oxazepin-12-one] |
| > 5000 | 80 | C=CC(=O)N1CCN2C(=O)c3c(N4CCOC[C@@H]4C)nc(-c4c(O)cccc4F)c(Cl)c3OC[C@H]2C1 [Z32] |
| 4030 | 37 | C=CC(=O)N1CCN2C(=O)c3c(N4CC(N(C)CC(F)(F)F)CC4(C)C)nc(-c4ccccc4F)c(Cl)c3OC[C@H]2C1 (mixture of isomers) [Z491a, (6aR)-8-acryloyl-4-chloro-1-(2,2-dimethyl-4-(methyl(2,2,2-trifluoroethyl)amino)pyrrolidin-1-yl)-3-(2-fluorophenyl)-6,6a,7,8,9,10-hexahydro-12H-pyrazino[2,1-c]pyrido[3,4-f][1,4]oxazepin-12-one] |
| 8990 | 34 | C=CC(=O)N1CCN2C(=O)c3c(N4CCN(C)C[C@@H]4C)nc(-c4c(O)cccc4Cl)c(Cl)c3OC[C@H]2C1 [Z452, (6aR)-8-acryloyl-4-chloro-3-(2-chloro-6-hydroxyphenyl)-1-((S)-2,4-dimethylpiperazin-1-yl)-6,6a,7,8,9,10-hexahydro-12H-pyrazino[2,1-c]pyrido[3,4-f][1,4]oxazepin-12-one] |
| 20500 | 141 | C=CC(=O)N1CCN2C(=O)c3c(N4CC(O)CC4(C)C)nc(-c4c(F)cccc4OC)c(F)c3OC[C@H]2C1 (single isomer, unassigned) [Z450] |

More lines, now with the values behind:

| SMILES | IC50 [1] [nM] | IC50 [2] [nM] |
| --- | --- | --- |
| C=CC(=O)N1CCN2C(=O)c3c(N4CC(O)CC4(C)C)nc(-c4ccccc4Cl)c(F)c3OC[C@H]2C1 (stereo partly drawn) [Z414-1, (6aR)-8-acryloyl-3-(2-chlorophenyl)-4-fluoro-1-(4-hydroxy-2,2-dimethylpyrrolidin-1-yl)-6,6a,7,8,9,10-hexahydro-12H-pyrazino[2,1-c]pyrido[3,4-f][1,4]oxazepin-12-one] | 8890 | 103 |
| C=CC(=O)N1CCN2C(=O)c3c(N4C[C@@H](N(C)CC(F)F)CC4(C)C)nc(-c4ccccc4F)c(Cl)c3OC[C@H]2C1 (single isomer, unassigned) [Z659-1] | 6180 | 249 |
| C=CC(=O)N1CCN2C(=O)c3c(N4C[C@@H](N5CCN(C)CC5)CC4(C)C)nc(-c4ccccc4F)c(F)c3OC[C@H]2C1 (single isomer, unassigned) [Z474-1] | 7950 | 64 |
| C=CC(=O)N1CCN2C(=O)c3c(N4C[C@H](N(C)C)CC4(C)C)nc(-c4cccc(C)c4F)c(Cl)c3OC[C@H]2C1 (single isomer, unassigned) [Z472-2] | 1650 | 108 |
| C=CC(=O)N1CCN2C(=O)c3c(N4CC(N(C)C)CC4(C)C)nc(-c4ccccc4F)c(Cl)c3OC[C@H]2C1 (single isomer, unassigned) [Z453-2] | 6720 | 168 |
| C=CC(=O)N1CCN2C(=O)c3c(N4C[C@H](N(C)C)CC4(C)C)nc(-c4c(F)ccc(F)c4O)c(Cl)c3OC[C@H]2C1 (single isomer, unassigned) [Z475-2] | 5860 | 107 |
| C=CC(=O)N1CCN2C(=O)c3c(N4CC[C@H](N(C)C)C4(C)C)nc(-c4ccccc4F)c(Cl)c3OC[C@H]2C1 [Z502-2, (6aR)-8-acryloyl-4-chloro-1-(3-(dimethylamino)-2,2-dimethylpyrrolidin-1-yl)-3-(2-fluorophenyl)-6,6a,7,8,9,10-hexahydro-12H-pyrazino[2,1-c]pyrido[3,4-f][1,4]oxazepin-12(6aH)-one] | 6140 | 124 |
| C=CC(=O)N1CCN2C(=O)c3c(N4C[C@@H](N5CCN(C)CC5)CC4(C)C)nc(-c4c(F)cccc4Cl)c(Cl)c3OC[C@H]2C1 (single isomer, unassigned) [Z635-1] | 2280 | 14 |
| C=CC(=O)N1CCN2C(=O)c3c(N4C[C@@H](N5CCN(C)CC5)CC4(C)C)nc(-c4ccccc4F)c(Cl)c3OC[C@H]2C1 (single isomer, unassigned) [Z454-1] | 2630 | 13 |
| C=CC(=O)N1CCN2C(=O)c3c(N4C[C@@H](NC)CC4(C)C)nc(-c4ccccc4F)c(Cl)c3OC[C@H]2C1 (single isomer, unassigned) [Z661-1] | 2900 | 57 |
| C=CC(=O)N1CCN2C(=O)c3c(N4CC(N(C)CC(F)F)CC4(C)C)nc(-c4ccccc4F)c(Cl)c3OCC2C1 (single isomer, unassigned) [Z659-2] | 2660 | 22 |
| C=CC(=O)N1CCN2C(=O)c3c(N4C[C@@H](N5CC(F)C5)CC4(C)C)nc(-c4ccccc4F)c(Cl)c3OC[C@H]2C1 [Z480-1, (R)-8-acryloyl-4-chloro-1-((S)-4-(3-fluoroazetidin-1-yl)-2,2-dimethylpyrrolidin-1-yl)-3-(2-fluorophenyl)-6,6a,7,8,9,10-hexahydro-12H-pyrazino[2,1-c]pyrido[3,4-f][1,4]oxazepin-12-one] | 3980 | 13 |
| C=CC(=O)N1CCN2C(=O)c3c(N4CCN(C)C[C@@H]4C)nc(-c4ccccc4F)c(Cl)c3OC[C@H]2C1 [Z407-1, (R)-8-acryloyl-4-chloro-1-((S)-2,4-dimethylpiperazin-1-yl)-3-(2-fluorophenyl)-6,6a,7,8,9,10-hexahydro-12H-pyrazino[2,1-c]pyrido[3,4-f][1,4]oxazepin-12-one] | 9160 | 144 |
| C=CC(=O)N1CCN2C(=O)c3c(N4C[C@H](N5CC(C(F)(F)F)C5)CC4(C)C)nc(-c4ccccc4F)c(Cl)c3OC[C@H]2C1 (single isomer, unassigned) [Z608-1] | 2950 | 1220 |
| C=CC(=O)N1CCN2C(=O)c3c(N4C[C@@H](NCC(F)(F)F)CC4(C)C)nc(-c4ccccc4F)c(Cl)c3OC[C@H]2C1 (single isomer, unassigned) [Z662-1] | 4090 | 32.6 |
| C=CC(=O)N1CCN2C(=O)c3c(N4C[C@@H](N(C)C)CC4(C)C)nc(-c4cccc(C)c4F)c(Cl)c3OC[C@H]2C1 (single isomer, unassigned) [Z472-1] | 1740 | 189 |
| C=CC(=O)N1CCN2C(=O)c3c(N4C[C@@H](N(C)C)CC4(C)C)nc(-c4ccccc4F)c(Cl)c3OC[C@H]2C1 [Z453-1, (R)-8-acryloyl-4-chloro-1-((S)-4-(dimethylamino)-2,2-dimethylpyrrolidin-1-yl)-3-(2-fluorophenyl)-6,6a,7,8,9,10-hexahydro-12H-pyrazino[2,1-c]pyrido[3,4-f][1,4]oxazepin-12-one] | 3340 | 116 |
| C=CC(=O)N1CCN2C(=O)c3c(N4C[C@H](N5CCN(C)CC5)CC4(C)C)nc(-c4c(F)cccc4Cl)c(Cl)c3OC[C@H]2C1 (single isomer, unassigned) [Z635-2] | 2970 | 55 |
| C=CC(=O)N1CCN2C(=O)c3c(N4C[C@@H](N5CC(C#N)C5)CC4(C)C)nc(-c4ccccc4F)c(Cl)c3OC[C@H]2C1 (single isomer, unassigned) [Z637-2] | 2520 | 68 |
